According to PubChem BioAssay AID493040 (Abbott Labs, 2011):
The source made the active and inactive calls. No rule for the calls is given here.

Tests used:
Assay in all cases: PubChem AID 493040
[1] = target: Serine/threonine-protein kinase PLK3 (Homo sapiens) (UniProt Q9H4B4); settings: kinase panel binding, pKi
[2] = target: Epidermal growth factor receptor (Homo sapiens) (UniProt P00533); settings: kinase panel binding, pKi; EGFR
[3] = target: Serine/threonine-protein kinase Sgk2 (Homo sapiens) (UniProt Q9HBY8); settings: kinase panel binding, pKi; SGK
[4] = target: Rho-associated protein kinase 2 (Homo sapiens) (UniProt O75116); settings: kinase panel binding, pKi; ROCK2
Rho-associated protein kinase 2 (Homo sapiens), sequence (O75116 whole entry, looked up): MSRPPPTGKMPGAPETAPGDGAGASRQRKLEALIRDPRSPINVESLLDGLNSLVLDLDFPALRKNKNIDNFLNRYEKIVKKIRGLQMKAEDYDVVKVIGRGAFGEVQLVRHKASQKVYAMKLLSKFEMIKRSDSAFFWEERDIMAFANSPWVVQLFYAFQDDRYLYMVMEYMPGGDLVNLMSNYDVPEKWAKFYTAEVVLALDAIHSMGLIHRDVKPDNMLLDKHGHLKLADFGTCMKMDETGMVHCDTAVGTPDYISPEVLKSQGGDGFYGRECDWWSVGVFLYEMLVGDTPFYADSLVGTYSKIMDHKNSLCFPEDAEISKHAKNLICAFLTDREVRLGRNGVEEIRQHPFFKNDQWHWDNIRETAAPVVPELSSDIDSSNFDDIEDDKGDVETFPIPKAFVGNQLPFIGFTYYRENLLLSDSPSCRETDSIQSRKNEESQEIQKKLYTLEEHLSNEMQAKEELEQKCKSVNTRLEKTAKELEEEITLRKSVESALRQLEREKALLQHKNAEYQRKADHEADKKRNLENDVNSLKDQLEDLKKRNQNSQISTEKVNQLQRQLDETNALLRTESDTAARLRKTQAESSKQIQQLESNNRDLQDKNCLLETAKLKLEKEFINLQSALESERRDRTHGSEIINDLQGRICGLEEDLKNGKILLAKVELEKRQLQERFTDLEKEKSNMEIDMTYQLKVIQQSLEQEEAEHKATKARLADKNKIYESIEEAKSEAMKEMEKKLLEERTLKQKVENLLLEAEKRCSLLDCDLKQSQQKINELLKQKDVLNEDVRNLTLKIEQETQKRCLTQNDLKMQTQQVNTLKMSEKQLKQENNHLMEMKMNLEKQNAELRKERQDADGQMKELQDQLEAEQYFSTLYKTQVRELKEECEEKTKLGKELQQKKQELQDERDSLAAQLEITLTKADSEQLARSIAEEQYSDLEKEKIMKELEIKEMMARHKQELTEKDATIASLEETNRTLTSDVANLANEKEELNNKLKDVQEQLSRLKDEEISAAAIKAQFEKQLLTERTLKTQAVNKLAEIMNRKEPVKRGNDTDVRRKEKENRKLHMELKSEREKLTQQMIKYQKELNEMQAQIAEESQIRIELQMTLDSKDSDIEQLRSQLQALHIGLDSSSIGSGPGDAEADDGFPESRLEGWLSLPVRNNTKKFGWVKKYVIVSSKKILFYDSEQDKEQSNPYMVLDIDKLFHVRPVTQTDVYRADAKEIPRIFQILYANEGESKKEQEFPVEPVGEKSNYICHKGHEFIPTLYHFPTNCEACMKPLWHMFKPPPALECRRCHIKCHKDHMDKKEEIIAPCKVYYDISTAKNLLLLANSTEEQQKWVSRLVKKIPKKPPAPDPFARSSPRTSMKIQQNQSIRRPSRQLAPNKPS

Serine/threonine-protein kinase Sgk2 (Homo sapiens), sequence (Q9HBY8 whole entry, looked up): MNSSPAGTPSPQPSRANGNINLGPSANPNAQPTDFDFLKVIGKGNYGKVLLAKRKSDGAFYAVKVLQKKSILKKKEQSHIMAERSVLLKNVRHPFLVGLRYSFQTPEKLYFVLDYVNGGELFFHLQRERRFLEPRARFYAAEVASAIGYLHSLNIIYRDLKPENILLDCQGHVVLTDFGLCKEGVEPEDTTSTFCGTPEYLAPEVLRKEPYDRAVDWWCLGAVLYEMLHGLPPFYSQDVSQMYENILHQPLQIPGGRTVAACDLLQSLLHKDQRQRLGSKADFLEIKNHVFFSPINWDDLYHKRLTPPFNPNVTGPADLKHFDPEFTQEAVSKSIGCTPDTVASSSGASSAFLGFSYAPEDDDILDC
Epidermal growth factor receptor (Homo sapiens), sequence (P00533 whole entry, looked up): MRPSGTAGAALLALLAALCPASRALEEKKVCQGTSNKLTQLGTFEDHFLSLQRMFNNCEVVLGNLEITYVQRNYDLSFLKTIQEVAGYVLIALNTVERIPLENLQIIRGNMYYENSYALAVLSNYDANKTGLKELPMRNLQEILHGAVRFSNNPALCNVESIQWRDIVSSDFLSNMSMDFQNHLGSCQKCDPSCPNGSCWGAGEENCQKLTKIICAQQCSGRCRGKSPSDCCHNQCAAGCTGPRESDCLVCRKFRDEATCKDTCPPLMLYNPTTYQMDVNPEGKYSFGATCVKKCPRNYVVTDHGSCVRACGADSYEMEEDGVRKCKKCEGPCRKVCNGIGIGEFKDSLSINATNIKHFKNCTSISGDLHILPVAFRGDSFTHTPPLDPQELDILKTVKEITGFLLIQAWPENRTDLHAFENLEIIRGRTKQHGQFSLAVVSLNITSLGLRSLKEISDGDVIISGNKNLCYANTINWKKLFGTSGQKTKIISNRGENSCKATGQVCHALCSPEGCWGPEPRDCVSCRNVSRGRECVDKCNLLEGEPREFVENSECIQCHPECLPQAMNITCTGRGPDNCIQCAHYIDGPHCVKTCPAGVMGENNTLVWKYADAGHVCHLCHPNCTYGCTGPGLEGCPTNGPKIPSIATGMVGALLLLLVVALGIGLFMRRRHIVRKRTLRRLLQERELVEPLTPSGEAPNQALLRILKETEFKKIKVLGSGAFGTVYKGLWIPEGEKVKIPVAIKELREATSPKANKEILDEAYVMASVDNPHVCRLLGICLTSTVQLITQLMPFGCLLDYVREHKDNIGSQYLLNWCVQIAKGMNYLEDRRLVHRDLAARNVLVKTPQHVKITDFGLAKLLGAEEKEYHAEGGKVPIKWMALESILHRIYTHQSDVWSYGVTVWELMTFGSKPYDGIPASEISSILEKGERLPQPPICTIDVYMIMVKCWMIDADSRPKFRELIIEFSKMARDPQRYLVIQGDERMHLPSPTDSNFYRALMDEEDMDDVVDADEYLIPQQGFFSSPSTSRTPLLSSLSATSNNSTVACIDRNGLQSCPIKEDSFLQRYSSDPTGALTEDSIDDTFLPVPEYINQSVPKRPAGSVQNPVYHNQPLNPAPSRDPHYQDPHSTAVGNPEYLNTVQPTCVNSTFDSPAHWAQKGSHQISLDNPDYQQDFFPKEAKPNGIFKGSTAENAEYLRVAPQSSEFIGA
Serine/threonine-protein kinase PLK3 (Homo sapiens), sequence (Q9H4B4 whole entry, looked up): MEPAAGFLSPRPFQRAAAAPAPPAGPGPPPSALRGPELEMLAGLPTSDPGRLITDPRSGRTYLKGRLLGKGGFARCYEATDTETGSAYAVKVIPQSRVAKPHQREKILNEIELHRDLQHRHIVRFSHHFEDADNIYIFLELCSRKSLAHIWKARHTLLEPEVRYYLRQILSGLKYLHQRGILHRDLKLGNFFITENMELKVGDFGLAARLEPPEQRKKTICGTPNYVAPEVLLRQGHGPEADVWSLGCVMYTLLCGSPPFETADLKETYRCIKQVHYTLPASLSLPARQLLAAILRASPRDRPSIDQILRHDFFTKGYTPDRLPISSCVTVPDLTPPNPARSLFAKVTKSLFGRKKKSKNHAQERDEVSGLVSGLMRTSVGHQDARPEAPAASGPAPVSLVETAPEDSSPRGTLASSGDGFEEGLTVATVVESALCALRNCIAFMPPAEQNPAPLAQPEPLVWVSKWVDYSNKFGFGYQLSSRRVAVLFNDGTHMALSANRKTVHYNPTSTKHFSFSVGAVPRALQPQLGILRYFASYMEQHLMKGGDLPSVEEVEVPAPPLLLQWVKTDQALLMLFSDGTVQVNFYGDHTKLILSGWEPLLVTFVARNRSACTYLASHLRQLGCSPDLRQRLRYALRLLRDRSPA

Structure (SMILES): COc1cc2ncn(-c3cc(OCc4ccccc4C(F)(F)F)c(C(N)=O)s3)c2cc1OC
- Ki [1]: 0.00794 µM
- Ki [2]: 0.251 µM
- Ki [3]: > 10 µM (inactive)
- Ki [4]: > 7.94 µM (inactive)
